Data as given in ChEMBL document CHEMBL2440076, “New triarylpyrazoles as broad-spectrum anticancer agents: design, synthesis, and biological evaluation” (Eur J Med Chem, 2013).

Tests used:
Type in all cases: functional
OVCAR-8 = test: Growth inhibition of human OVCAR8 cells assessed as cell growth at 3X10'-6 M after 48 hrs by sulforhodamine B assay; conditions: OVCAR-8, 48 h, read-out: Activity
SF-295 = test: Growth inhibition of human SF295 cells assessed as cell growth at 3X10'-6 M after 48 hrs by sulforhodamine B assay; conditions: SF-295, 48 h, read-out: Activity
MDA-MB-435 [1] = test: Growth inhibition of human MDA-MB-435 cells assessed as cell growth at 3X10'-6 M after 48 hrs by sulforhodamine B assay; conditions: MDA-MB-435, 48 h, read-out: Activity
SK-MEL-5 [2] = test: Growth inhibition of human SK-MEL-5 cells assessed as cell growth at 3X10'-9 M after 48 hrs by sulforhodamine B assay; conditions: SK-MEL-5, 48 h, read-out: Activity
SK-MEL-28 = test: Growth inhibition of human SK-MEL-28 cells assessed as cell growth at 3X10'-9 M after 48 hrs by sulforhodamine B assay; conditions: SK-MEL-28, 48 h, read-out: Activity
U-251 = test: Growth inhibition of human U251 cells assessed as cell growth at 3X10'-7 M after 48 hrs by sulforhodamine B assay; conditions: U-251, 48 h, read-out: Activity
MOLT-4 = test: Growth inhibition of human MOLT4 cells assessed as cell growth at 3X10'-6 M after 48 hrs by sulforhodamine B assay; conditions: MOLT-4, 48 h, read-out: Activity
IGROV-1 = test: Growth inhibition of human IGROV1 cells assessed as cell growth at 3X10'-8 M after 48 hrs by sulforhodamine B assay; conditions: IGROV-1, 48 h, read-out: Activity
COLO 205 [3] = test: Growth inhibition of human COLO205 cells assessed as cell growth at 3X10'-9 M after 48 hrs by sulforhodamine B assay; conditions: COLO 205, 48 h, read-out: Activity
T47D = test: Growth inhibition of human T47D cells assessed as cell growth at 3X10'-9 M after 48 hrs by sulforhodamine B assay; conditions: read-out: Activity
M14 [4] = test: Growth inhibition of human M14 cells assessed as cell growth at 3X10'-5 M after 48 hrs by sulforhodamine B assay; conditions: M14, 48 h, read-out: Activity
SN12C = test: Growth inhibition of human SN12C cells assessed as cell growth at 3X10'-8 M after 48 hrs by sulforhodamine B assay; conditions: read-out: Activity
SF-539 = test: Growth inhibition of human SF539 cells assessed as cell growth at 3X10'-7 M after 48 hrs by sulforhodamine B assay; conditions: SF-539, 48 h, read-out: Activity
COLO 205 [5] = test: Growth inhibition of human COLO205 cells assessed as cell growth at 3X10'-7 M after 48 hrs by sulforhodamine B assay; conditions: COLO 205, 48 h, read-out: Activity
NCI-H322M = test: Growth inhibition of human NCI-H322M cells assessed as cell growth at 3X10'-9 M after 48 hrs by sulforhodamine B assay; conditions: read-out: Activity
NCI-H226 [6] = test: Growth inhibition of human NCI-H226 cells assessed as cell growth at 3X10'-8 M after 48 hrs by sulforhodamine B assay; conditions: NCI-H226, 48 h, read-out: Activity
HOP-62 = test: Growth inhibition of human HOP62 cells assessed as cell growth at 3X10'-7 M after 48 hrs by sulforhodamine B assay; conditions: HOP-62, 48 h, read-out: Activity
OVCAR-3 = test: Growth inhibition of human OVCAR3 cells assessed as cell growth at 10^-7 M after 48 hrs by sulforhodamine B assay; conditions: OVCAR-3, 48 h, read-out: Activity
COLO 205 [7] = test: Growth inhibition of human COLO205 cells assessed as cell growth at 10^-6 M after 48 hrs by sulforhodamine B assay; conditions: COLO 205, 48 h, read-out: Activity
SK-MEL-5 [8] = test: Growth inhibition of human SK-MEL-5 cells assessed as cell growth at 10^-5 M after 48 hrs by sulforhodamine B assay; conditions: SK-MEL-5, 48 h, read-out: Activity
SF-268 = test: Growth inhibition of human SF268 cells assessed as cell growth at 10^-8 M after 48 hrs by sulforhodamine B assay; conditions: SF-268, 48 h, read-out: Activity
MDA-MB-468 = test: Growth inhibition of human MDA-MB-468 cells assessed as cell growth at 10^-8 M after 48 hrs by sulforhodamine B assay; conditions: MDA-MB-468, 48 h, read-out: Activity
M14 [9] = test: Growth inhibition of human M14 cells assessed as cell growth at 10^-7 M after 48 hrs by sulforhodamine B assay; conditions: M14, 48 h, read-out: Activity
A549 = test: Growth inhibition of human A549/ATCC cells assessed as cell growth at 10^-7 M after 48 hrs by sulforhodamine B assay; conditions: A549, 48 h, read-out: Activity
DU-145 = test: Growth inhibition of human DU145 cells assessed as cell growth at 10^-6 M after 48 hrs by sulforhodamine B assay; conditions: DU-145, 48 h, read-out: Activity
NCI-H226 [10] = test: Growth inhibition of human NCI-H226 cells assessed as cell growth at 10^-5 M after 48 hrs by sulforhodamine B assay; conditions: NCI-H226, 48 h, read-out: Activity
HCT-15 = test: Growth inhibition of human HCT15 cells assessed as cell growth at 10^-8 M after 48 hrs by sulforhodamine B assay; conditions: HCT-15, 48 h, read-out: Activity
A498 = test: Growth inhibition of human A498 cells assessed as cell growth at 10^-6 M after 48 hrs by sulforhodamine B assay; conditions: A498, 48 h, read-out: Activity
MDA-MB-435 [11] = test: Growth inhibition of human MDA-MB-435 cells assessed as cell growth at 10^-6 M after 48 hrs by sulforhodamine B assay; conditions: MDA-MB-435, 48 h, read-out: Activity
COLO 205 [12] = test: Growth inhibition of human COLO205 cells assessed as cell growth at 10^-7 M after 48 hrs by sulforhodamine B assay; conditions: COLO 205, 48 h, read-out: Activity
NCI-H226 [13] = test: Growth inhibition of human NCI-H226 cells assessed as cell growth at 10^-6 M after 48 hrs by sulforhodamine B assay; conditions: NCI-H226, 48 h, read-out: Activity
MCF7 = test: Growth inhibition of human MCF7 cells assessed as cell growth at 10^-5 M after 48 hrs by sulforhodamine B assay; conditions: MCF7, 48 h, read-out: Activity
[14] = Growth inhibition of human HCC2998 cells assessed as cell growth at 10^-8 M after 48 hrs by sulforhodamine B assay; conditions: HCC 2998, 48 h, read-out: Activity
PC-3 = test: Growth inhibition of human PC3 cells assessed as cell growth at 10^-7 M after 48 hrs by sulforhodamine B assay; conditions: PC-3, 48 h, read-out: Activity
NCI-H226 [15] = test: Growth inhibition of human NCI-H226 cells assessed as cell growth at 10^-8 M after 48 hrs by sulforhodamine B assay; conditions: NCI-H226, 48 h, read-out: Activity
OVCAR-4 = test: Growth inhibition of human OVCAR4 cells assessed as cell growth at 10^-7 M after 48 hrs by sulforhodamine B assay; conditions: OVCAR-4, 48 h, read-out: Activity
786-0 = test: Growth inhibition of human 786-0 cells assessed as cell growth at 10^-8 M after 48 hrs by sulforhodamine B assay; conditions: 786-0, 48 h, read-out: Activity

SMILES	growth at 3 µM (OVCAR-8)	growth at 3 µM (SF-295)	growth at 3 µM (MDA-MB-435 [1])	growth at 0.003 µM (SK-MEL-5 [2])	growth at 0.003 µM (SK-MEL-28)	growth at 0.3 µM (U-251)	growth at 3 µM (MOLT-4)	growth at 0.03 µM (IGROV-1)	growth at 0.003 µM (COLO 205 [3])	growth at 0.003 µM (T47D)	growth at 30 µM (M14 [4])	growth at 0.03 µM (SN12C)	growth at 0.3 µM (SF-539)	growth at 0.3 µM (COLO 205 [5])	growth at 0.003 µM (NCI-H322M)	growth at 0.03 µM (NCI-H226 [6])	growth at 0.3 µM (HOP-62)	other results
COc1cc(-c2nn(-c3cccc(NC(=O)Nc4ccc(Cl)c(C(F)(F)F)c4)c3)cc2-c2ccncc2)ccc1Cl	5%	-11%	-36%	98%	99%	90%	9%	102%	106%	101%	-66%	94%	91%	101%	93%	92%	93%	
COc1cc(-c2nn(-c3cccc(NC(=O)c4ccccc4)c3)cc2-c2ccncc2)ccc1Cl																		growth at 0.1 µM (OVCAR-3): 101%; growth at 1 µM (COLO 205 [7]): 32%; growth at 10 µM (SK-MEL-5 [8]): -60%; growth at 0.01 µM (SF-268): 95%; growth at 0.01 µM (MDA-MB-468): 90%; growth at 0.1 µM (M14 [9]): 92%; growth at 0.1 µM (A549): 94%; growth at 1 µM (DU-145): 44%; growth at 10 µM (NCI-H226 [10]): 26%; growth at 0.01 µM (HCT-15): 97%; growth at 1 µM (A498): 19%; growth at 1 µM (MDA-MB-435 [11]): -28%; growth at 0.1 µM (COLO 205 [12]): 95%; growth at 1 µM (NCI-H226 [13]): 64%; growth at 10 µM (MCF7): 10%; growth at 0.01 µM [14]: 97%; growth at 0.1 µM (PC-3): 86%; growth at 0.01 µM (NCI-H226 [15]): 97%; growth at 0.1 µM (OVCAR-4): 95%; growth at 0.01 µM (786-0): 93%
COc1cc(-c2nn(-c3cccc(NC(=O)c4ccc(Cl)c(C(F)(F)F)c4)c3)cc2-c2ccncc2)ccc1Cl	50%	27%	-32%	99%	99%	91%	57%	89%	101%	95%	19%	99%	91%	99%	91%	92%	94%	
COc1cc(-c2nn(-c3cccc(NC(=O)c4ccc(N5CCOCC5)c(C(F)(F)F)c4)c3)cc2-c2ccncc2)ccc1Cl																		growth at 0.1 µM (OVCAR-3): 76%; growth at 1 µM (COLO 205 [7]): 5%; growth at 10 µM (SK-MEL-5 [8]): -55%; growth at 0.01 µM (SF-268): 97%; growth at 0.01 µM (MDA-MB-468): 95%; growth at 0.1 µM (M14 [9]): 76%; growth at 0.1 µM (A549): 69%; growth at 1 µM (DU-145): 16%; growth at 10 µM (NCI-H226 [10]): 15%; growth at 0.01 µM (HCT-15): 98%; growth at 1 µM (A498): 1%; growth at 1 µM (MDA-MB-435 [11]): -33%; growth at 0.1 µM (COLO 205 [12]): 101%; growth at 1 µM (NCI-H226 [13]): 28%; growth at 10 µM (MCF7): 8%; growth at 0.01 µM [14]: 101%; growth at 0.1 µM (PC-3): 73%; growth at 0.01 µM (NCI-H226 [15]): 102%; growth at 0.1 µM (OVCAR-4): 92%; growth at 0.01 µM (786-0): 98%
O=C(Nc1cccc(-n2cc(-c3ccncc3)c(-c3ccc(Cl)c(O)c3)n2)c1)Nc1ccc(Cl)c(Cl)c1	16%		14%	96%	102%	100%	19%	104%	100%	97%	-28%	96%	87%	104%	95%	97%	111%	
O=C(Nc1cccc(-n2cc(-c3ccncc3)c(-c3ccc(Cl)c(O)c3)n2)c1)Nc1cccc(C(F)(F)F)c1	31%	7%	26%	103%	103%	97%	36%	98%	101%	92%	-20%	98%	92%	109%	95%	100%	105%	
O=C(Nc1cccc(-n2cc(-c3ccncc3)c(-c3ccc(Cl)c(O)c3)n2)c1)Nc1ccc(Cl)c(C(F)(F)F)c1	-16%	-22%	-31%	99%	103%	82%	-4%	109%	105%	102%	-39%	94%	89%	101%	97%	86%	104%	
